According to patent publication US6294562A, “Salts of ethyl 3-(2-(4-(4-amino-imino-methyl)phenyl)-4-methyl-2,5-dioxo-imidazolidin-1-yl )acetylamino)-3-phenylpropionate” (Hoechst Aktiengesellschaft, priority 1996, dated 2001):

Legend:
[1] = system: ADP-induced ex vivo platelet aggregation; assay: Ex vivo platelet aggregation inhibition in dogs, ADP-induced; set-up: species or system dog; settings: for Inhibition of aggregation: ADP
Method: (§1) Dogs of either sex (mixed breed of Labrador/Harrier, body weight 21-28 kg) were fasted overnight. The test compounds were administered orally in gelatine capsules or intravenously. Before administration of the test compounds and several times during 24 hours thereafter, 20 ml of blood were withdrawn from the cephalic vein into acid citrate dextrose (9+1volumes). Platelet rich plasma (PRP) was obtained by centrifugation. Platelet aggregation was measured in PRP after addition of either ADP (3-30 μmol/l) or collagen (0.3-10 μg/ml) plus epinephrine (10 μM) at 37° C. in an aggregometer (BioData). Percent of maximal aggregation before and after drug administration was compared. The percent inhibition of aggregation at the lowest concentration of the agonist which induced irreversible maximal aggregation is given. In addition, the cutaneous bleeding time was measured at the shaved inner forearm using the Simplate® 1 device at the times of blood collection. Percent prolongation of bleeding time after drug administration as compared to the predrug value is calculated.
When ethyl (S)-3-(2-( (S)-4-(4-(amino-imino-methyl) phenyl)-4-methyl-2,5-dioxoimidazolidin-1-yl)acetylamino)-3-phenylpropionate hydrogen maleate was examined the following results were obtained. Given is the percent inhibition of platelet aggregation 1 h, 4 h, 8 h and 24 h after administration of the test substance. The dose is given in mg per kg body weight. n is the number of dogs tested.

[2] = system: coronary cyclic flow variations (recurrent formation of platelet rich thrombi); assay: Coronary cyclic flow variations in dogs (model of unstable angina); type: in vivo, dog
Text: (§2) Dogs of either sex (20-35 kg) were anesthetized (Ketamine plus sodium pentobarbital infusion), ventilated and instrumented for the measurement of hemodynamic parameters (peripheral and left ventricular blood pressure, myocardial contractility, heart rate), and ECG. Blood gases and hematocrit were kept constant by infusion of electrolytes. After a left thoracotomy, the heart was exposed and the left circumflex coronary artery (LCX) was instrumented with an electromagnetic flow probe to measure mean coronary blood flow. Distal to the flow probe, the LCX was shortly squeezed with forceps in order to damage the endothelium, and a small concentrically constricting plastic cylinder was placed onto the damaged site (between 1.0 and 1.7 mm inner diameter, depending on the size of the LCX, and 4 mm length). The constrictor abolished the reactive hyperemic response to a 10 second occlusion of the LCX and initiated the appearance of flow cycles (approx. 10 per hour) resulting from recurrent formation of platelet rich thrombi at the stenosed site. After 60 min of regular cyclic flow variations, the test compounds were administered by intravenous or intraduodenal bolus application. Cyclic flow variations were further monitored for at least 2 to 5 hours. Percent inhibition of coronary thrombotic cyclic flow variations was calculated by comparison of the mean number of cyclic flow variations per hour before and after administration of the compound in 5 to 8 animals. In control animals, the number of cyclic flow variations per hour remained constant for several hours. (References: Folts, J. D. et al. (1976), Circulation 54: 365-370; Just, M. et al. (1989), J. Cardiovasc. Pharmacol. 14 (suppl. 11): S 129-136)
When ethyl (S)-3-(2-((S)-4-(4-(amino-imino-methyl)phenyl)-4methyl-2,5-dioxoimidazolidin-1-yl)acetylamino)-3-phenylpropionate hydrogen maleate was examined the following results were obtained. Given is the percent reduction of the number of stenosis induced coronary cyclic flow variations (CFV's) per hour in the first, the second and the third hour after administration of the test compound as compared to the predrug period. The dose is given in mg per kg of body weight.

[3] = Hemodynamic parameters in the coronary cyclic flow variation model in dogs; type: in vivo, dog; settings: all hemodynamic parameters, intravenous or intraduodenal
Text: as §2, with “After 60 min of regular cyclic flow variations, the test compounds were administered by intravenous or intraduodenal bolus application.” left out, “In control animals, the number of cyclic flow variations per hour remained constant for several hours. (References: Folts, J. D. et al. (1976), Circulation 54: 365-370; Just, M. et al. (1989), J. Cardiovasc. Pharmacol. 14 (suppl. 11): S 129-136)” left out

[4] = Cutaneous bleeding time in dogs (Simplate 1 device); type: in vivo, dog; settings: for maximal prolongation of bleeding time: p<0.05
Method: as §1

[5] = Determination of water vapor sorption (automatic two-limbed microbalance, 25° C.); type: physicochemical
Method: The water uptake of a substance was determined using an automatic two-limbed microbalance which is operated in vacuo or in an atmosphere which has a defined composition or a defined pressure. The dry sample is located on one side of the balance and a taring weight is located on the other side. A water vapor atmosphere, whose pressure was increased stepwise, was generated in the weighing space. The increase in weight of the sample as a function of the water vapor pressure was recorded. The measurement was carried out at a constant temperature of 25° C.
The weighing space was first of all evacuated to constant weight and the starting weight of the sample was determined. A defined quantity of water vapor was then passed into the evacuated weighing space through an inlet valve. In the experiment which is reproduced below, the water vapor pressure which was set in this first step corresponds, at the measuring temperature of 25° C., to a relative atmospheric humidity of 4.7%. When constant weight was once again reached after passing in the water vapor, i.e. when the sample was in equilibrium with the water vapor atmosphere, the increase in weight of the sample was recorded. After that, the water vapor pressure was increased in several steps by passing in further water vapor (with each water vapor pressure corresponding to a defined relative atmospheric humidity at the measuring temperature of 25° C.). In each step, the increase in weight of the sample was recorded after constant weight had been reached. When ethyl (S)-3-(2-((S)-4-(4-(amino-imino-methyl)phenyl)-4-methyl-2,5-dioxo-imidazolidin-1-yl)-acetylamino)-3-phenylpropionate hydrogen maleate was examined, the following weight increases, based on the starting weight of the sample, were observed.

## CCOC(=O)C[C@H](NC(=O)CN1C(=O)N[C@@](C)(c2ccc(C(=N)N)cc2)C1=O)c1ccccc1.O=C(O)/C=C\C(=O)O [Ethyl (S)-3-(2-((S)-4-(4-(amino-imino-methyl)phenyl)-4-methyl-2,5-dioxo-imidazolidin-1-yl)acetylamino)-3-phenylpropionate hydrogen maleate]
[1]; 0.5 mg/kg intravenously, n=6, after 1 h
  Inhibition of aggregation: 93%
[1]; 0.5 mg/kg intravenously, n=6, after 4 h
  Inhibition of aggregation: 88%
[1]; 0.5 mg/kg intravenously, n=6, after 8 h
  Inhibition of aggregation: 59%
[1]; 0.5 mg/kg intravenously, n=6, after 24 h
  Inhibition of aggregation: 16%
[1]; 0.5 mg/kg orally, n=6, after 1 h
  Inhibition of aggregation: 46%
[1]; 0.5 mg/kg orally, n=6, after 4 h
  Inhibition of aggregation: 83%
[1]; 0.5 mg/kg orally, n=6, after 8 h
  Inhibition of aggregation: 33%
[1]; 0.5 mg/kg orally, n=6, after 24 h
  Inhibition of aggregation: 18%
[1]; 1 mg/kg orally, n=6, after 1 h
  Inhibition of aggregation: 76%
[1]; 1 mg/kg orally, n=6, after 4 h
  Inhibition of aggregation: 97%
[1]; 1 mg/kg orally, n=6, after 8 h
  Inhibition of aggregation: 86%
[1]; 1 mg/kg orally, n=6, after 24 h
  Inhibition of aggregation: 70%
[1]; 2 mg/kg orally, n=8, after 1 h
  Inhibition of aggregation: 64%
[1]; 2 mg/kg orally, n=8, after 4 h
  Inhibition of aggregation: 86%
[1]; 2 mg/kg orally, n=8, after 8 h
  Inhibition of aggregation: 78%
[1]; 2 mg/kg orally, n=8, after 24 h
  Inhibition of aggregation: 49%
[1]; in words, ADP- and collagen-induced
  efficacy as inhibitor of platelet aggregation: pronounced efficacy
[2]; 0.1 mg/kg intraduodenally, first hour
  Reduction of CFV's: 39%
[2]; 0.1 mg/kg intraduodenally, second hour
  Reduction of CFV's: 62%
[2]; 0.1 mg/kg intraduodenally, third hour
  Reduction of CFV's: 74%
[2]; 0.1 mg/kg intravenously, first hour
  Reduction of CFV's: 52%
[2]; 0.1 mg/kg intravenously, second hour
  Reduction of CFV's: 81%
[2]; 0.1 mg/kg intravenously, third hour
  Reduction of CFV's: 89%
[2]; 0.2 mg/kg intravenously, first hour
  Reduction of CFV's: 75%
[2]; 0.2 mg/kg intravenously, second hour
  Reduction of CFV's: 96%
[2]; 0.2 mg/kg intravenously, third hour
  Reduction of CFV's: 99%
[2]; 0.3 mg/kg intraduodenally, first hour
  Reduction of CFV's: 23%
[2]; 0.3 mg/kg intraduodenally, second hour
  Reduction of CFV's: 66%
[2]; 0.3 mg/kg intraduodenally, third hour
  Reduction of CFV's: 78%
[2]; dog, in vivo
  antithrombotic activity: powerful antithrombotic activity
[3]
  hemodynamic parameters recorded during the test: not significantly changed
[4]; 0.5 mg/kg intravenous, at 4 hours
  maximal prolongation of bleeding time: 68%
[4]; 2 mg/kg oral, at 2 hours
  maximal prolongation of bleeding time: 122%
[4]; at the lower oral doses (0.5 and 1 mg/kg)
  bleeding times: not significantly changed
[5]; 25° C.
  hygroscopicity: not hygroscopic
[5]; relative atmospheric humidity of approx. 80%
  increase in weight: approx. 0.5%
[5]; relative humidity 4.7%, 25° C.
  Increase in weight of the sample: 0.06%
[5]; relative humidity 18.5%, 25° C.
  Increase in weight of the sample: 0.11%
[5]; relative humidity 32.8%, 25° C.
  Increase in weight of the sample: 0.16%
[5]; relative humidity 49.6%, 25° C.
  Increase in weight of the sample: 0.23%
[5]; relative humidity 64.7%, 25° C.
  Increase in weight of the sample: 0.33%
[5]; relative humidity 75.5%, 25° C.
  Increase in weight of the sample: 0.43%
[5]; relative humidity 82.1%, 25° C.
  Increase in weight of the sample: 0.54%
